Data taken from the NIST ThermoML archive (doi:10.1016/j.jct.2003.09.011).
± gives the expanded uncertainty stated by the source.

Experiment: activity coefficient (dimensionless); of the first substance listed, at infinite dilution; xn = mol fraction of the nth substance listed
Conditions: Liquid, Chromatography, x1 = 0

Compound `CCCCC` [pentane] + O=Cc1ccco1 has an activity coefficient (278.15 K) of 24.3 ± 2.1 and an activity coefficient (298.15 K) of 21.6 ± 1.9.
For `CCCCCCC` [heptane] + O=Cc1ccco1, the activity coefficient (278.15 K) was 38.1 ± 3.3 and the activity coefficient (298.15 K) was 33.4 ± 2.9.
For `c1ccccc1` [benzene] + O=Cc1ccco1, the activity coefficient (278.15 K) was 2.55 ± 0.22 and the activity coefficient (298.15 K) was 2.45 ± 0.21.
In the case of `C1CCCCC1` [cyclohexane] + O=Cc1ccco1, the activity coefficient (278.15 K) is reported as 16.8 ± 1.5 and the activity coefficient (298.15 K) is reported as 13.6 ± 1.2.
`C1CCCC1` [cyclopentane] + O=Cc1ccco1 showed an activity coefficient (278.15 K) of 14.2 ± 1.2 and an activity coefficient (298.15 K) of 13.3 ± 1.2.
`CCCCCC` [hexane] + O=Cc1ccco1 showed an activity coefficient (278.15 K) of 31.9 ± 2.8 and an activity coefficient (298.15 K) of 27.8 ± 2.4.
Compound `C#CCCCCC` [1-heptyne] + O=Cc1ccco1 has an activity coefficient (278.15 K) of 20 ± 1.7 and an activity coefficient (298.15 K) of 17.9 ± 1.5.
With `C1CCCCCC1` [cycloheptane] + O=Cc1ccco1 the activity coefficient (278.15 K) was 18.6 ± 1.6 and the activity coefficient (298.15 K) was 15.5 ± 1.3.
With `C#CCCCC` [1-hexyne] + O=Cc1ccco1 the activity coefficient (278.15 K) was 6.27 ± 0.54 and the activity coefficient (298.15 K) was 5.09 ± 0.44.
In the case of `C=CCCCC` [hex-1-ene] + O=Cc1ccco1, the activity coefficient (278.15 K) is reported as 15.2 ± 1.3 and the activity coefficient (298.15 K) is reported as 15 ± 1.3.
